Assay results published in patent publication EP4692094A1 (Beijing Konruns Pharmaceutical Co., Ltd., priority 2023, dated 2024).

Experiments:
Type in all cases: in vitro ADME
[1] = Assay for plasma protein binding rate (equilibrium dialysis), human plasma; settings: dialysis 6 h at 37 °C, read-out: Human (Fu%)
Procedure: 1.1 Preparation of compounds: The compounds prepared in the examples were each dissolved in dimethylsulfoxide to give solutions at a concentration of 10 mmol/L. • 1) The example compounds were each diluted from 10 mmol/L stock solution to 0.2 mmol/L, i.e., 1 µL of the compound was added to 49 µL of DMSO; • 2) 3 µL of 0.2 mmol/L test compounds were added to 597 µL of blood plasma, and the mixtures were vortexed at 1000 rpm for 2 min; • 3) 50 µL of the plasma containing the drug in 2) was taken, 50 µL of PBS was added, and 300 µL of methanol internal standard* was added to serve as a sample T0; • 4) 120 µL of the plasma containing the drug in 2) was taken and added to one side of an HTD device membrane, and 120 µL of PBS was added to the other side of the membrane; a breathable film was covered, and the plasma and the residual sample in 2) were balanced at 37 °C (100 rpm and 5% CO2) for 6 h; • 5) 50 µL of the dialyzed plasma side sample was taken, 50 µL of PBS was added, and 300 µL of methanol internal standard* was added to serve as a sample P; • 6) 50 µL of the dialyzed PBS side sample was taken, 50 µL of blank plasma was added, and 300 µL of methanol internal standard* was added to serve as a sample B; • 7) 50 µL of the plasma containing the drug in 2) was taken, 50 µL of PBS was added, and 300 µL of methanol internal standard* was added to serve as a sample T6; • 8) All samples were vortexed, mixed homogeneously, and then centrifuged at 3220 g for 40 min at 4 °C; • 9) 100 µL of the supernatant and 100 µL of purified water were mixed homogenously for liquid chromatography-mass spectrometry.
An internal standard method was used, and the plasma protein binding rate, recovery rate, and residual percentage were calculated by using Excel according to the ratio of the peak area of the sample to the peak area of the internal standard. Free rate(%) = (RatioB)/(RatioP) × 100% [formula] Binding rate(%) = 100%−Free rate% [formula] Recovery rate(%) = (RatioB + RatioP)/(RatioT0) × 100% [formula] Remaining percentage(%) = (RatioT6)/(RatioT0) × 100% [formula]
RatioB: a ratio of the peak area of the test substance on the PBS side to the peak area of the internal standard; RatioP: a ratio of the peak area of the test substance on the plasma side to the peak area of the internal standard; RatioT6: a ratio of the peak area of the sample after incubation with the test substance for 6 h to the peak area of the internal standard; RatioT0: a ratio of the peak area of the sample after incubation with the test substance for 0 h to the peak area of the internal standard. Table 8. Plasma protein binding rate (Fu%) data for various species of example compounds

CYP2D6 = biological target: T1, CYP2D6 (Homo sapiens, UniProt P10635); assay: Inhibitory effect on P450 enzymes in vitro (human liver microsomes), CYP2D6; settings: probe dextromethorphan, final concentration 10 µM, substrate dextromethorphan, read-out: % inhibition rate CYP2D6 (dextromethorphan)
T1 construct: from tissue; host or cells: human liver microsomes
T1 sequence (P10635 whole entry): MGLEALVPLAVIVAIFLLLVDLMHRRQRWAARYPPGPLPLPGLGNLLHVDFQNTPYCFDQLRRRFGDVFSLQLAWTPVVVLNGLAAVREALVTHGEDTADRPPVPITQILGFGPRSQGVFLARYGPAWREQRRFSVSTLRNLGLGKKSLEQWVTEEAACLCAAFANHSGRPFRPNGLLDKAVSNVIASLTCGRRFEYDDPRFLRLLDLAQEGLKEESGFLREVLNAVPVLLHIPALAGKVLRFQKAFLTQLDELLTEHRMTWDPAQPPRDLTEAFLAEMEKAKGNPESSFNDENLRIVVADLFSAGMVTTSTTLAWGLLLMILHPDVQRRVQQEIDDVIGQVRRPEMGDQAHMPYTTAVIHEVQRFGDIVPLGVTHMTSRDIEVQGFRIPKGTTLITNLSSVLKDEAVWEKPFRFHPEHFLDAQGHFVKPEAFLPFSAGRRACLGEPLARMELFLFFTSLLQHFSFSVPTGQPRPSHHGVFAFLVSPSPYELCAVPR
Procedure: (§1) 1.1 Preparation of compounds: The compounds prepared in the examples were each dissolved in dimethylsulfoxide to give solutions at a concentration of 2 mmol/L.
(§2) 1.2 Test methods: • 1) Incubation system: human liver microsomes, a MgCl2 solution, a phosphate buffer solution, and a substrate solution were each added a 96-well deep-well plate and mixed homogenously. In the final incubation system, the concentration of the human liver microsomes was 0.2 mg/mL, and the final concentrations of the MgCl2 solution and the phosphate buffer solution were 5 mM and 100 mM, respectively. • 2) 1 µL of the substrate solution was added to the incubation system, and the final concentrations of CYP1A2 phenacetin, 2C8 paclitaxel […], 2C19 mephenytoin, 2D6 midazolam, and 3A midazolam substrates were 40 µM (phenacetin), 5 µM (paclitaxel), 50 µM (mephenytoin), 10 µM (mephenytoin), 5 µM (midazolam), and 50 µM […], respectively. • 3) 1 µL of the example compound or vehicle (DMSO) was added to the incubation system, and the incubation system was pre-warmed for 5 min in a 37 °C water bath before starting the reaction with 20 µL of 10 mM NADPH solution.
(§3) 1.3 Sample treatment: Within the designated time (20 min for phenacetin, 10 min for paclitaxel, 20 min for mephenytoin, 20 min for dextromethorphan, 5 min for midazolam, and 10 min for testosterone), 400 µL of methanol containing the internal standard was added to terminate the reaction, and the mixture was vortexed and mixed homogeneously. Then, the deep-well plate was centrifuged at 3220 g and 4 °C for 40 min. 100 µL of the supernatant was transferred into a new plate, and 150 µL of purified water was added. The mixture was mixed homogenously for LC-MS/MS analysis. Table 11. Inhibitory effects of some compounds in the examples on CYP enzymes

CYP3A = assay: Inhibitory effect on P450 enzymes in vitro (human liver microsomes), CYP3A; settings: final concentration 10 µM; for inhibition at 5 min, 10 µM: probe midazolam, substrate midazolam, read-out: % inhibition rate CYP3A (midazolam); for inhibition at 10 min, 10 µM: probe testosterone, substrate testosterone, read-out: % inhibition rate CYP3A (testosterone)
Procedure: as §1, §2, §3

CYP2C8 = biological target: T2, CYP2C8 (Homo sapiens, UniProt P10632); assay: Inhibitory effect on P450 enzymes in vitro (human liver microsomes), CYP2C8; settings: probe paclitaxel, final concentration 10 µM, substrate paclitaxel, read-out: % inhibition rate CYP2C8 (paclitaxel)
T2 construct: from tissue; host or cells: human liver microsomes
T2 sequence (P10632 1-490): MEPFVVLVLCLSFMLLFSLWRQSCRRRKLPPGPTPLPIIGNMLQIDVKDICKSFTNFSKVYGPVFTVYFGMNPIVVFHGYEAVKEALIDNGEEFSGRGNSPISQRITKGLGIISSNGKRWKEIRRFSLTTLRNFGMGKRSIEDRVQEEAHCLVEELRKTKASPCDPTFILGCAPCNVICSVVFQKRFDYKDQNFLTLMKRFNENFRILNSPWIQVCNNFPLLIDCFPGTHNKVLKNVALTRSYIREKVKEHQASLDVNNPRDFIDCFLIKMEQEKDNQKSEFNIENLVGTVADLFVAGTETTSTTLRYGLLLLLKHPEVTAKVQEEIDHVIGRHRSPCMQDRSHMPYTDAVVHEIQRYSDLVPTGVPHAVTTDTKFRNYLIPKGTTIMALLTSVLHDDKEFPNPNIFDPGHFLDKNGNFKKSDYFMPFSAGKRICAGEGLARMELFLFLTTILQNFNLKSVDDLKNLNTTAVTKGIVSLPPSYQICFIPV
Procedure: as §1, §2, §3

COc1ccc2ccoc2c1S(=O)(=O)Nc1noc2cc(Cn3cccn3)nc(OC)c12 [Example 10, N-(6-((1H-Pyrazol-1-yl)methyl)-4-methoxyisoxazolo[4,5-c]pyridin-3-yl)-6-methoxybenzofuran-7-sulfonamide]
fraction unbound at 6 h, 1 µM [1]: 0.0073 | inhibition at 20 min, 10 µM (CYP2D6): 6.03% | inhibition at 5 min, 10 µM (CYP3A): -4.28% | inhibition at 10 min, 10 µM (CYP3A): -2.93% | inhibition at 10 min, 10 µM (CYP2C8): 3.71%

COc1cc2c(cc1S(=O)(=O)Nc1noc3cc(Cn4cccn4)nc(OC)c13)CCCC2 [Example 2, N-(6-((1H-Pyrazol-1-yl)methyl)-4-methoxyisoxazolo[4,5-c]pyridin-3-yl)-3-methoxy-5,6,7,8-tetrahydronaphthalene-2-sulfonamide]
fraction unbound at 6 h, 1 µM [1]: 0.0099 | inhibition at 20 min, 10 µM (CYP2D6): 5.38% | inhibition at 5 min, 10 µM (CYP3A): -5.22% | inhibition at 10 min, 10 µM (CYP3A): 5.84% | inhibition at 10 min, 10 µM (CYP2C8): 16.4%

COc1ccc2c(c1S(=O)(=O)Nc1noc3cc(Cn4cccn4)nc(OC)c13)OCC2 [Example 9, N-(6-((1H-Pyrazol-1-yl)methyl)-4-methoxyisoxazolo[4,5-c]pyridin-3-yl)-6-methoxy-2,3-dihydrobenzofuran-7-sulfonamide]
fraction unbound at 6 h, 1 µM [1]: 0.0069

COc1cc2c(cc1S(=O)(=O)Nc1noc3cc(Cn4cccn4)nc(OC)c13)OCC2 [Example 59, N-(6-((1H-Pyrazol-1-yl)methyl)-4-methoxyisoxazolo[4,5-c]pyridin-3-yl)-5-methoxy-2,3-dihydrobenzofuran-6-sulfonamide]
fraction unbound at 6 h, 1 µM [1]: 0.0248 | inhibition at 20 min, 10 µM (CYP2D6): 4.62% | inhibition at 5 min, 10 µM (CYP3A): -12.1% | inhibition at 10 min, 10 µM (CYP3A): -7.66% | inhibition at 10 min, 10 µM (CYP2C8): 2.08%

COc1cc2c(cc1S(=O)(=O)Nc1noc3cc(Cn4cccn4)nc(OC)c13)CCCO2 [Example 76, N-(6-((1H-Pyrazol-1-yl)methyl)-4-methoxyisoxazolo[4,5-c]pyridin-3-yl)-7-methoxy-3,4-dihydro-1H-benzopyran-6-sulfonamide]
fraction unbound at 6 h, 1 µM [1]: 0.0118
